Our source for the PEN2 protein levels and MT potential values is patent publication US10201558B2, “Compositions of selenoorganic compounds and methods of use thereof” (Alltech, Inc., priority 2014, dated 2019).

For one experiment, the system named is PEN2. The experiment is described as follows: Western blot of PEN2 protein in IMR-32 cells. In kind it is cell-based, human. To be noted: 150 ppb, 24 hours. As for the experimental part:
IMR-32 cells were seeded on 6-well plates and then treated with control and various compounds for 6 hours and 24 hours, as described above. After treatments, cells were rinsed with ice-cold PBS and lysed in ice-cold RIPA buffer containing complete proteinase and phosphatase inhibitors (Thermo-Fisher Scientific, Waltham, Mass.) on ice for 30 min Cell lysates were collected using a cell scraper and transfer pipette and then centrifuged at 12000×g for 30 min at 4° C. to remove the DNA pellet and obtain the protein extract. Protein levels in the supernatant of these cell lysates were determined using the Pierce Micro-BCA protein assay kit (Thermo Scientific-Piece Biotechnology, Rockford, Ill.) according to the manufacturer's protocol […]
Positive signals on the membrane blots were detected using Amersham's enhanced chemiluminescence (ECL) Western Blotting Prime Detection reagents (GE healthcare Lifescience, Pittsburgh, Pa.). Images of these luminescence signals on the membrane blots were captured using the LI-COR Odyssey Fc Image system (Lincoln, Nebr.). […] Protein band densities in the Western blots were determined using the Li—COR Image studio software or NIH ImageJ software, and then normalized by ACTB protein level in each sample. […]

Experiment [1] deals with control KD and FOXO4KD IMR-32 cells. Briefly: Mitochondrial potential in control KD and FOXO4 knockdown IMR-32 cells. In kind it is cell-based, human. To be noted: 75 ppb and 150 ppb, 6 hours. As to the method:
IMR-32 cells were cultured on 12-well plates for 24 hours and then incubated with FOXO4 siRNA lentiviruses (SC-29650V, Santa Cruz) or control siRNA lentiviruses (sc-108080, Santa Cruz) in the presence of Polybrene (5 μg/ml, Santa Cruz) for 24 hours according to the manufacturer's protocol. These lentiviral siRNA-transfected cells were amplified in normal media for 3 days and then incubated with puromycin for 9-14 days to obtain the stable Control KD (stably transfected with the control siRNAs) and FOXO4KD (stably transfected with Foxo4 siRNAs) cells. These control and Foxo4 KD cells were subjected to cell survival, mitochondrial potential and RNA analysis.
The mitochondrial potential per cell in control lentiviral KD IMR-32 or IMR-32 FOXO4 knockdown (KD) cells was determined using the Bio-TeK Synergy HT Multi-Mode fluorescence microplate reader with the following modifications. To improve the attachment of IMR-32 cells to culture dishes, cell culture plates were precoated with 0.1% gelatin (Sigma, St. Louis, Mo.).
To reduce cell dislodgment, Mitotracker Orange and Hoechst 33342 fluorescent dyes (diluted in culture media) were directly added to each well after control or compound treatments were added. After dye incubation, cell culture media was carefully replaced with 1×PBS buffer for the quantitation analysis of fluorescence on the microplate reader. Eight samples per each treatment were examined for the above analysis, and the experiments were repeated at least five times. Data are presented as mean±sem of eight samples.
To exclude the possibility that unknown factors in sera may affect the action of Compound C in cultured IMR-32 cells, cells were cultured in serum-free media for 24 hours, treated with Compound C (diluted in serum-free media) for 6 hours, and then subjected to MT analysis. Data were normalized by the fluorescence intensities of stained cell nuclei. Mean±SEM, n=8. The * refers to a p value <0.05 when compared to the control lentiviral KD cells group (0 ppb).

Molecules are shown by their SMILES.

Turning to `C[Se]C[C@H]1O[C@@H](n2cnc3c(N)ncnc32)C(O)C1O` (stereo in doubt) [Compound C, 5′-deoxy-5′-methylselenoadenosine], the PEN2 protein levels result in the experiment on PEN2 is given as “but not PEN2 proteins, were reduced”. For the same compound, the MT potential entry was “no significant effect” in experiment [1] (FOXO4KD cells, serum-containing media); “no significant increase” in experiment [1] (FOXO4KD cells, serum-free media); “significantly enhanced” in experiment [1] (normal control KD cells, serum-containing media); “significantly stimulated” in experiment [1] (normal control KD cells, serum-free media).
